Paper PMC6934184, “Selective DNA-PKcs inhibition extends the therapeutic index of localized radiotherapy and chemotherapy” (The Journal of Clinical Investigation, 2019)

Target: T1, EEF2K (Homo sapiens, UniProt O00418)
T1 construct: purchased Thermo Fisher Scientific (Life Technologies) SelectScreen
Test: SelectScreen Z'LYTE
Assay type: biochemical
Outline: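 Compound tested in SelectScreen activity assays, Z'LYTE for CSF1R, CDK1/cyclin B and MAP2K6 and Adapta for CAMK1. ATP for CAMK1 was listed as 10, and Km app was used for CSF1R. Results are expressed in percent.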

**Q.** Which inhibition at 1 µM does the source give for CN(C(=O)CN1CCOCC1)c1ccc2sc3c(-c4cccc5c(=O)cc(N6CC7CCC(C6)O7)oc45)cccc3c2c1 [NU5455] here?
**A.** Its inhibition at 1 µM is -2.4%.
